Experimental data reported in BigSolDB 2.1.

CN1COCNC1=N[N+](=O)[O-]
solubility (mole fraction)
Conditions	293.15 K	298.15 K	303.15 K	308.15 K	313.15 K	318.15 K	323.15 K
in DMF	0.0947	0.113	0.12	0.138	0.141	0.165	0.166
in DMSO	0.0794	0.0978	0.104	0.115	0.12	0.123	0.14
in acetonitrile	0.0241	0.0318	0.0336	0.0411	0.0436	0.0547	0.0563
in dichloromethane	0.0126	0.0154	0.0162	0.0233	0.0234	0.0265	0.0277
in ethanol	0.00163	0.00212	0.00241	0.00351	0.00379	0.00445	0.00507
in ethyl acetate	0.00579	0.00614	0.00633	0.0074	0.00773	0.00866	0.0106
in ethylene glycol	0.00157	0.00248	0.00289	0.00439	0.00447	0.00527	0.00893
in isopropanol	0.00101	0.0013	0.0013	0.00175	0.00242	0.00285	0.00303
in methanol	0.00289	0.00422	0.00447	0.00532	0.00682	0.00759	0.00978
in methyl acetate	0.00741	0.00839	0.00936	0.0115	0.0124	0.0133	0.0157
in n-butanol	0.00199	0.00218	0.00234	0.00279	0.00308	0.00321	0.00362
in n-propanol	0.00109	0.00146	0.00195	0.00217	0.00247	0.00301	0.00441
